From ChEMBL document CHEMBL5104172, “Design, synthesis, and antibacterial activity of derivatives of Tryptophanyl-tRNA synthetase inhibitor indolmycin” (Eur J Med Chem, 2022)

Legend:
[1] = Stability in CD-1 mouse whole blood assessed as compound remaining at 2 uM and measured at 10 mins LC-MS/MS analysis; format: ADME, tissue-based; settings: read-out: Stability
[2] = Stability in CD-1 mouse whole blood assessed as compound remaining at 2 uM and measured at 30 mins LC-MS/MS analysis; format: ADME, tissue-based; settings: read-out: Stability
[3] = Stability in CD-1 mouse whole blood assessed as compound remaining at 2 uM and measured at 60 mins LC-MS/MS analysis; format: ADME, tissue-based; settings: read-out: Stability
[4] = Stability in CD-1 mouse whole blood assessed as compound remaining at 2 uM and measured at 120 mins LC-MS/MS analysis; format: ADME, tissue-based; settings: read-out: Stability
Staphylococcus aureus [5] = assay: Antibacterial activity against Staphylococcus aureus ATCC 29213 measured by liquid dilution method; format: functional
Staphylococcus aureus [6] = assay: Antibacterial activity against methicillin-resistant Staphylococcus aureus MRSA17-1 measured by liquid dilution method; format: functional
Staphylococcus aureus [7] = assay: Antibacterial activity against methicillin-resistant Staphylococcus aureus MRSA17-2 measured by liquid dilution method; format: functional
Staphylococcus aureus [8] = assay: Antibacterial activity against methicillin-resistant Staphylococcus aureus MRSA17-3 measured by liquid dilution method; format: functional
Staphylococcus aureus [9] = assay: Antibacterial activity against methicillin-resistant Staphylococcus aureus MRSA17-5 measured by liquid dilution method; format: functional
Staphylococcus aureus [10] = assay: Antibacterial activity against methicillin-resistant Staphylococcus aureus MRSA17-6 measured by liquid dilution method; format: functional
Staphylococcus aureus [11] = assay: Antibacterial activity against methicillin-resistant Staphylococcus aureus ATCC 33591 measured by liquid dilution method; format: functional
Staphylococcus aureus [12] = assay: Antibacterial activity against methicillin-resistant Staphylococcus aureus ATCC 43300 measured by liquid dilution method; format: functional
Staphylococcus aureus [13] = assay: Antibacterial activity against vancomycin-intermediate Staphylococcus aureus ATCC 700699 measured by liquid dilution method; format: functional
Staphylococcus aureus [14] = assay: Antibacterial activity against vancomycin-intermediate Staphylococcus aureus ATCC 700788 measured by liquid dilution method; format: functional
Staphylococcus aureus [15] = assay: Antibacterial activity against methicillin-sensitive Staphylococcus aureus MSSA17-1 measured by liquid dilution method; format: functional
Staphylococcus aureus [16] = assay: Antibacterial activity against methicillin-sensitive Staphylococcus aureus MSSA17-2 measured by liquid dilution method; format: functional
Staphylococcus aureus [17] = assay: Antibacterial activity against methicillin-sensitive Staphylococcus aureus MSSA17-3 measured by liquid dilution method; format: functional
[18] = tested on: Staphylococcus epidermidis; assay: Antibacterial activity against methicillin-resistant Staphylococcus epidermidis MRSE17-1 measured by liquid dilution method; format: functional
[19] = tested on: Staphylococcus epidermidis; assay: Antibacterial activity against methicillin-resistant Staphylococcus epidermidis MRSE17-2 measured by liquid dilution method; format: functional
[20] = tested on: Staphylococcus epidermidis; assay: Antibacterial activity against methicillin-resistant Staphylococcus epidermidis MRSE17-3 measured by liquid dilution method; format: functional
[21] = tested on: Staphylococcus epidermidis; assay: Antibacterial activity against methicillin-resistant Staphylococcus epidermidis MRSE17-4 measured by liquid dilution method; format: functional
[22] = tested on: Staphylococcus epidermidis; assay: Antibacterial activity against methicillin-resistant Staphylococcus epidermidis MRSE17-6 measured by liquid dilution method; format: functional
[23] = tested on: Staphylococcus epidermidis; assay: Antibacterial activity against methicillin-sensitive Staphylococcus epidermidis MSSE17-1 measured by liquid dilution method; format: functional
[24] = tested on: Staphylococcus epidermidis; assay: Antibacterial activity against methicillin-sensitive Staphylococcus epidermidis MSSE17-2 measured by liquid dilution method; format: functional
[25] = tested on: Staphylococcus epidermidis; assay: Antibacterial activity against methicillin-sensitive Staphylococcus epidermidis MSSE17-3 measured by liquid dilution method; format: functional
Enterococcus faecalis [26] = assay: Antibacterial activity against Enterococcus faecalis EFA17-1 measured by liquid dilution method; format: functional
Enterococcus faecalis [27] = assay: Antibacterial activity against Enterococcus faecalis ATCC 29212 measured by liquid dilution method; format: functional
Enterococcus faecium [28] = assay: Antibacterial activity against Enterococcus faecium EFM17-1 measured by liquid dilution method; format: functional
Enterococcus faecium [29] = assay: Antibacterial activity against Enterococcus faecium EFM17-2 measured by liquid dilution method; format: functional
[30] = Plasma protein binding in CD-1 mouse plasma incubated for 4 hrs and assessed as unbound fraction at 2 uM measured by LC/MS/MS analysis; format: ADME, cell-free
[31] = Plasma protein binding in CD-1 mouse plasma incubated for 4 hrs at 2 uM measured by LC/MS/MS analysis; format: ADME, cell-free; settings: read-out: PPB (converted)
Staphylococcus aureus [32] = assay: Antibacterial activity against vancomycin-intermediate Staphylococcus aureus measured by liquid dilution method; format: functional
Helicobacter pylori = assay: Antibacterial activity against Helicobacter pylori measured by liquid dilution method; format: functional

CC(C)[N+](C)(CCOC(=O)C1c2ccccc2Oc2ccccc21)C(C)C [PROPANTHELINE BROMIDE]
93.5%: remaining at 10 min, 2 µM [1]
82.9%: remaining at 0.5 h, 2 µM [2]
64.7%: remaining at 1 h, 2 µM [3]
38.3%: remaining at 2 h, 2 µM [4]

CNC1=NC(=O)[C@H]([C@H](C)c2c[nH]c3cccc(C)c23)O1
0.276: fraction unbound at 4 h, 2 µM [30] | fraction unbound at 4 h, 2 µM [31]
> 128 µg/mL: MIC (Enterococcus faecalis [26]) | MIC (Enterococcus faecalis [27]) | MIC (Enterococcus faecium [28]) | MIC (Enterococcus faecium [29])
1 µg/mL: MIC (Staphylococcus aureus [5]) | MIC (Staphylococcus aureus [9]) | MIC (Staphylococcus aureus [11]) | MIC (Staphylococcus aureus [15]) | MIC (Staphylococcus aureus [16])
0.25 µg/mL: MIC [24] | MIC [25]
0.5 µg/mL: MIC (Staphylococcus aureus [6]) | MIC (Staphylococcus aureus [7]) | MIC (Staphylococcus aureus [8]) | MIC (Staphylococcus aureus [10]) | MIC (Staphylococcus aureus [12]) | MIC (Staphylococcus aureus [13]) | MIC (Staphylococcus aureus [14]) | MIC (Staphylococcus aureus [17]) | MIC [18] | MIC [19] | MIC [21] | MIC [22]
0.125 µg/mL: MIC [20] | MIC [23]

CNC1=NC(=O)[C@H]([C@H](C)c2c[nH]c3cccc(Cl)c23)O1
0.134: fraction unbound at 4 h, 2 µM [30] | fraction unbound at 4 h, 2 µM [31]
> 128 µg/mL: MIC (Enterococcus faecalis [26]) | MIC (Enterococcus faecalis [27]) | MIC (Enterococcus faecium [28]) | MIC (Enterococcus faecium [29])
0.25 µg/mL: MIC [20] | MIC [23]
1 µg/mL: MIC (Staphylococcus aureus [6]) | MIC (Staphylococcus aureus [7]) | MIC (Staphylococcus aureus [9]) | MIC (Staphylococcus aureus [10]) | MIC (Staphylococcus aureus [12]) | MIC (Staphylococcus aureus [14]) | MIC (Staphylococcus aureus [15]) | MIC (Staphylococcus aureus [16]) | MIC [18] | MIC [21] | MIC [22]
0.5 µg/mL: MIC (Staphylococcus aureus [8]) | MIC (Staphylococcus aureus [13]) | MIC (Staphylococcus aureus [17]) | MIC [19] | MIC [24] | MIC [25]
2 µg/mL: MIC (Staphylococcus aureus [5]) | MIC (Staphylococcus aureus [11])

CNC1=NC(=O)[C@H]([C@H](C)c2c[nH]c3ccccc23)O1 [INDOMYCIN]
1 µg/mL: MIC (Staphylococcus aureus [11]) | MIC [18] | MIC [19] | MIC [21] | MIC [22]
0.031 µg/mL: MIC90 (Helicobacter pylori)
0.5 µg/mL: MIC (Staphylococcus aureus [5]) | MIC (Staphylococcus aureus [6]) | MIC (Staphylococcus aureus [7]) | MIC (Staphylococcus aureus [9]) | MIC (Staphylococcus aureus [15]) | MIC (Staphylococcus aureus [16]) | MIC [24] | MIC [25]
0.25 µg/mL: MIC (Staphylococcus aureus [8]) | MIC (Staphylococcus aureus [10]) | MIC (Staphylococcus aureus [12]) | MIC (Staphylococcus aureus [14]) | MIC (Staphylococcus aureus [17]) | MIC [20] | MIC [23]
0.125 µg/mL: MIC (Staphylococcus aureus [32]) | MIC (Staphylococcus aureus [13])
0.441: fraction unbound at 4 h, 2 µM [30] | fraction unbound at 4 h, 2 µM [31]
> 128 µg/mL: MIC (Enterococcus faecalis [26]) | MIC (Enterococcus faecalis [27]) | MIC (Enterococcus faecium [28]) | MIC (Enterococcus faecium [29])

CNC1=NC(=O)[C@H]([C@H](C)c2c[nH]c3cccc(F)c23)O1
0.2: fraction unbound at 4 h, 2 µM [30] | fraction unbound at 4 h, 2 µM [31]
2 µg/mL: MIC [18]
1 µg/mL: MIC (Staphylococcus aureus [5]) | MIC (Staphylococcus aureus [7]) | MIC (Staphylococcus aureus [9]) | MIC (Staphylococcus aureus [11]) | MIC (Staphylococcus aureus [12]) | MIC (Staphylococcus aureus [15]) | MIC (Staphylococcus aureus [16]) | MIC [19] | MIC [21] | MIC [22] | MIC [24] | MIC [25]
0.5 µg/mL: MIC (Staphylococcus aureus [6]) | MIC (Staphylococcus aureus [8]) | MIC (Staphylococcus aureus [10]) | MIC (Staphylococcus aureus [13]) | MIC (Staphylococcus aureus [14]) | MIC (Staphylococcus aureus [17]) | MIC [20] | MIC [23]
> 128 µg/mL: MIC (Enterococcus faecalis [26]) | MIC (Enterococcus faecalis [27]) | MIC (Enterococcus faecium [28]) | MIC (Enterococcus faecium [29])
